Data from patent US10925851B2 (Regents of the University of Minnesota, priority 2018, dated 2021).
Where “and” joins values, the source holds several entries; their conditions need not be identical. Equal entries are not always repeated. Entries after “also recorded” stand apart in the source; their conditions may differ.

Assays:
[1] = biological target: T1, Aminopeptidase N (APN) (Homo sapiens, UniProt P15144); experiment: Aminopeptidase N enzyme assay (Ala-AMC substrate, fluorescence); type: biochemical
T1 construct: purchased R&D Systems
Description: Single concentration studies at 10 μM: Aminopeptidase N assays were performed as described previously. Aminopeptidase N was purchased from R&D Systems. Amino-4-methylcoumarin (Ala-AMC) was purchased from Bachem. Briefly, 0.1 μg/μL APN was incubated with 1 μL of 1 mM inhibitor in 50 mM Tris buffer, pH 7.5, in 100 μL volume in a black 384-well plate in duplicate. The reaction was started with the addition of Ala-AMC substrate at a final concentration of 100 μM. The cleavage accumulation AMC was measured by exciting at 380 nm and reading the fluorescence at 460 nm on a Molecular Devices SpectraMax i3 plate reader for 20 min at room temperature. Percent inhibition is calculated in GraphPad Prism software using slopes in the linear range for each inhibitor at 10 μM.
Dose-Response Studies for APN: Aminopeptidase N enzyme assays were performed as described previously.^26 Briefly, 0.1 μg/μL APN was incubated with 1 μL inhibitor in 50 mM Tris buffer, pH 7.5, in 50 μL volume in a black 384-well plate in duplicate. Compounds were tested at 3× dilutions from 100 μM final concentration. The reaction was started with the addition of Ala-AMC substrate at a final concentration of 100 μM. The accumulation of AMC was measured by exciting at 380 nm and reading the fluorescence at 460 nm on a Molecular Devices SpectraMax i3 plate reader for 30 min at room temperature. Steady state velocities were used to determine IC50 values by fitting the velocities vs. inhibitor concentration to the sigmoidal concentration-response curve (variable slope) using GraphPad Prism.

[2] = tested on: male CF-1 mice; experiment: Tail-flick assay (acute thermal pain); type: in vivo; settings: i.c.v. 100 μg per mouse, 15-90 min
Description: The Tail-Flick test comprises of acute nociception in which the tail of the test animal is thermally stimulated. The time it takes for the animal to either flick or withdraw its tail is recorded as a measure of the response to the thermal stimuli. For this test, mice were gently restrained in a cloth; the tail-flick beam was centered on the dorsal surface of the tail (about 15 mm from the end of the tail). The heat source was activated, and the latency for withdrawal of the tail was recorded. The intensity of the tail-flick beam was adjusted so that the average withdrawal time of the baseline measurement was 2 to 4 sec. For each animal, a baseline response latency was determined in two consecutive responses measured at 5 minute intervals. Animals were tested at 15, 30, 45, 60, 75, and 90 minutes after drug administration.
While hot-plate method is more sensitive at supraspinal level, the tail-flick method mostly embodies a spinal reflex response to noxious stimuli. […] The time it takes for the animal to either flick or withdraw its tail is recorded as a measure of the response to the stimuli. […]
Columbus Instruments tail-flick analgesiometer was employed for this experiment. […] The heat source was activated, and the latency for withdrawal of the tail recorded. […] For each animal, a baseline response latency was determined in two consecutive responses measured at 5 min intervals. […]

[3] = tested on: mice; experiment: Acetic acid writhing test (persistent pain); type: in vivo, mouse
Description: Acclimatized animals are treated systemically with a dilute solution of acetic acid inducing abdominal constrictions (writhes) or extension of hind limbs in the animal. The writhes and extensions are counted within a predetermined period of time to analyze the efficacy of the test compound. […] Percent inhibition is calculated according to the equation: % Inhibition=[(Mean number of writhes for control−Mean number of writhes for test compound)/(Mean number of writhes for control)]×100.
The mice were given vehicle or test compounds 15 min before acetic acid administration. Subsequently, all the groups of mice were injected with 1% (10 mL/kg) acetic acid solution intraperitoneally to induce writhing. The animals display characteristic movements such as extension of hind limb, abdominal constriction, and trunk twisting movement called writhing. The numbers of writhing episodes in 30 min period beginning at the time of the acetic acid administration were counted. […] APAP was dissolved in saline. Both test compounds were delivered intraperitoneally to the test animals.

[4] = tested on: mice; experiment: Formalin test (persistent pain); type: in vivo, mouse
Description: The formalin test is another variant model for analyzing pain-relieving properties of test compounds in pain produced by inflammation or by injury to peripheral tissue. It is divergent from the acetic acid writhing assay in producing a biphasic response. These pharmacologically distinct phases are generally observed from 1 to 10 minutes, and 15 to 60 minutes post injection. While phase-I is caused by a rapid relay response in pain fibers, sensitization due to peripheral inflammation results in phase-II response in this model.
Mice were injected with 20 μl of 2% buffered formalin solution into the intraplantar region of hind paw of mice and the total time spent in licking and biting of the formalin-treated paw by the animals over the course of 30 min (phase I, acute pain behavior, 0-5 min; phase II, chronic pain behavior, 15-30 min) was recorded. Test compounds were injected 15 min prior to formalin administration. The pain response time (licking time) was recorded for every 5-min period during the 30-min recording for each mouse. The test compounds were dissolved in 50% saline in DMSO solution and delivered systemically

[5] = tested on: male CF1 mice; experiment: Hot-plate test (acute thermal pain)
Description: The hot plate was the top surface of an enclosed cylindrical glass bath through which thermostatically controlled hot water was circulated. Under the conditions used, the temperature of the surface of the cylinder was maintained at 55° C. […] Reaction times were also determined twice for each mouse at 15-min intervals half an hour before injecting the drug to establish a baseline reaction time control value. Mice having a mean reaction time greater than 13 seconds were excluded as non-responders.
In this transient pain model, a thermal analgesiometer hot-plate was utilized for the determination of antinociceptive potency of test compounds against acute thermal stimulus. Mice were administered compounds via intraperitoneal (i.p.) or intracerebroventricular (i.c.v.) routes. […] The results are expressed as a percent of the maximum possible effect (% MPE) according to the equation: % MPE=[(Post-drug latency−Pre-drug latency)/(Cutoff−Pre-drug latency)]×100.
The hot-plate was the top surface of an enclosed cylindrical glass bath through which thermostatically controlled hot water was circulated. Under the conditions used, the temperature of the surface of the cylinder was maintained at 55° C. […] Test compounds were administered via intraperitoneal (i.p.) or intracerebroventricular (i.c.v.) routes. […] Animals with a mean reaction time greater than 13 seconds were excluded as non-responders.

T1 sequence (P15144 whole entry): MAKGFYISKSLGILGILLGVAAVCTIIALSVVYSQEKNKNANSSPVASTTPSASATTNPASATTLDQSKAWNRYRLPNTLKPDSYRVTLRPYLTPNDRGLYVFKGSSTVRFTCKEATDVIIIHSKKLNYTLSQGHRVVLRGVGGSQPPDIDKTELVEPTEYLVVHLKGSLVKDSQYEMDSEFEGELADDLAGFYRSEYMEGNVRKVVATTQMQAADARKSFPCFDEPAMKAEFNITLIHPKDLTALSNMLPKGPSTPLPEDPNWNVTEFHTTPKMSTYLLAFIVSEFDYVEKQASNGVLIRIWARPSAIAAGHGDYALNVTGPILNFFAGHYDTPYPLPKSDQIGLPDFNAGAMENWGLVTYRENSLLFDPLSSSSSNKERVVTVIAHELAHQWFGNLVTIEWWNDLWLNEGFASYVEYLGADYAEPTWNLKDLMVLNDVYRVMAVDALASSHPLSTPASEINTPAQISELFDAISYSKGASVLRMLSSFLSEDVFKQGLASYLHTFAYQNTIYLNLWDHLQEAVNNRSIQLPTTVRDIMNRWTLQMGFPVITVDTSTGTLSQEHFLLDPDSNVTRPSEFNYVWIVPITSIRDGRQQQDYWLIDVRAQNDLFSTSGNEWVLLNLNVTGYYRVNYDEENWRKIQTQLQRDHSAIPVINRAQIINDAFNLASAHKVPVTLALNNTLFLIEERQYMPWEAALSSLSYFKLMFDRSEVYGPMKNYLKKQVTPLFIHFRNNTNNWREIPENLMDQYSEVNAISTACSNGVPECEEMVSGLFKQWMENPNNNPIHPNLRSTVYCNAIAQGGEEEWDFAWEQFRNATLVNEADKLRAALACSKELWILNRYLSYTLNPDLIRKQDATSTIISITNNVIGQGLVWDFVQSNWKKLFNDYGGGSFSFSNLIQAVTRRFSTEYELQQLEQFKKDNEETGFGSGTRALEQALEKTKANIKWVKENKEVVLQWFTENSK

With CC(C)C[C@@H](C(=O)N[C@H](C(=O)OC1CCCC1)c1ccccc1)[C@H](O)C(=O)NO [Tosedostat] the “activity against APN (in words)” value [1] was “micromolar activity against APN”, the IC50 ([1]; dose response, 3x dilutions from 100 μM) was 0.93 µM and 0.933 µM and the inhibition at 10 µM ([1]; inhibitor 10 μM, read-out: APN @ 10 μM (percent inhibition)) was 83%. The analgesic effect [2] was “does not impart analgesic effect; also recorded: does not prompt a potent analgesic effect; also recorded: ineffective in furnishing an antinociceptive response”, the “dosage required for analgesic effect equivalent to 200 mg/Kg APAP” value ([3]; i.p.) was 1 mg/kg and the inhibition of writhings ([3]; i.p. 50 mg/Kg) was > 90%. The “attenuation of writhing episodes compared to control groups” value ([3]; i.p., 30-minute count after acetic acid) was “significant attenuation of writhing episodes in a dose-dependent manner”, the phase-I response ([4]; i.p.) was “dose-dependent response” and the “phase-II nociceptive action of formalin” value ([4]; i.p., dosages as low as 1 mg/Kg) was “completely suppressed”. The “potency in comparison with APAP” value ([4]; same assay) was “significantly advantageous in potency”, the “analgesic effect (% MPE time course)” value ([5]; i.c.v. 100 μg per mouse, 15-90 min post injection) was “did not show analgesic effect; also recorded: nominal analgesic effect; also recorded: did not register substantial analgesic outcome; also recorded: ineffective in furnishing an antinociceptive response” and the “analgesic effect, single time-point” value ([5]; i.c.v. 100 μg per mouse, 15 minutes after injection) was “nominal analgesic effect”. For the same compound, the “analgesic response in hot-plate compared to tail-flick experiments” value ([5]; i.p., over the course of 90 minutes) was “about two-fold better analgesic response”.
